Results on 30 compounds are retold here after US10738056B2 (Aduro BioTech, Inc., priority 2017, dated 2020).

For orientation: IC50 means the point on the concentration scale where inhibition reaches its midpoint.

The target in the test is Human cGAS amino acids 155-522 (Homo sapiens (Human), UniProt Q8N884). Briefly: cGAS biochemical activity assay (ATP remaining, Kinase-Glo Max luminescence). The settings on record: human cGAS 155-522, ATP remaining (Kinase-Glo Max); read-out: cGAS IC50.
Sequence of Human cGAS amino acids 155-522 (Q8N884 157-522): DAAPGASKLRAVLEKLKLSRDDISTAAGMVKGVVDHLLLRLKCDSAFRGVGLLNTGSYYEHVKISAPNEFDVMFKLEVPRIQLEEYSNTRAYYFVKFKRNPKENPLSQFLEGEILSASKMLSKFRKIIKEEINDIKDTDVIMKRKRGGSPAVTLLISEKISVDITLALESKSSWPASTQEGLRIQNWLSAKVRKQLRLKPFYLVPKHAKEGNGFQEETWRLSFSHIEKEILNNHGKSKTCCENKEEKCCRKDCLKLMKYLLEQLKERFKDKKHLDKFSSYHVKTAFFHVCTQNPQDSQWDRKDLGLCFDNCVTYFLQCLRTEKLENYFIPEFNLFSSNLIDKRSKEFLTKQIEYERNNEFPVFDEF
For `COc1ccccc1NC(=O)c1c[nH]c2c(-c3ccccc3)c(C(F)(F)F)nn2c1=O` [Compound A1057, N-(2-methoxyphenyl)-7-oxo-3-phenyl-2-(trifluoromethyl)-4,7-dihydropyrazolo[1,5-a]pyrimidine-6-carboxamide], the IC50 lay within 20 to 250 µM. With `Cc1[nH]c2c(-c3ccccc3)c(C(F)(F)F)nn2c(=O)c1C(=O)Nc1ccccc1N1CCCC1` [Compound A1054, 5-methyl-7-oxo-3-phenyl-N-(2-(pyrrolidin-1-yl)phenyl)-2-(trifluoromethyl)-4,7-dihydropyrazolo[1,5-a]pyrimidine-6-carboxamide], the IC50 was 20 to 250 µM. On to `COC(=O)Nc1ccccc1NC(=O)c1c(C)[nH]c2c(-c3ccccc3)c(C(F)(F)F)nn2c1=O` [Compound A1038, methyl (2-(5-methyl-7-oxo-3-phenyl-2-(trifluoromethyl)-4,7-dihydropyrazolo[1,5-a]pyrimidine-6-carboxamido)phenyl)carbamate], for which the IC50 was in the range of 20 to 250 µM.

As for `Cc1ccc(CN2CCN(C(=O)Cc3c(C)[nH]c4c(-c5ccccc5)c(C(F)(F)F)nn4c3=O)CC2)cc1` [Compound B1009, 5-methyl-6-(2-(4-(4-methylbenzyl)piperazin-1-yl)-2-oxoethyl)-3-phenyl-2-(trifluoromethyl)pyrazolo[1,5-a]pyrimidin-7(4H)-one], the IC50 is over 250 µM. For the compound `Cc1[nH]c2c(-c3ccccc3)c(C(F)(F)F)nn2c(=O)c1-c1nnc(N2CCCCC2CCN)o1` (stereo not drawn) [Compound D1069, 6-(5-(2-(2-aminoethyl)piperidin-1-yl)-1,3,4-oxadiazol-2-yl)-5-methyl-3-phenyl-2-(trifluoromethyl)pyrazolo[1,5-a]pyrimidin-7(4H)-one], the half-maximal inhibitory concentration (IC50) was in the range of 20 to 250 µM. With `Cc1[nH]c2c(-c3ccccc3)c(C(F)(F)F)nn2c(=O)c1C(=O)N[C@H]1CCCC[C@@H]1O` [Compound A1091, N-((1S,2S)-2-hydroxycyclohexyl)-5-methyl-7-oxo-3-phenyl-2-(trifluoromethyl)-4,7-dihydropyrazolo[1,5-a]pyrimidine-6-carboxamide], the IC50 is 20 to 250 µM. The same measure for `COc1cncc(NC(=O)c2c(C)[nH]c3c(-c4ccccc4)c(C(F)(F)F)nn3c2=O)n1` [Compound A1098, N-(6-methoxypyrazin-2-yl)-5-methyl-7-oxo-3-phenyl-2-(trifluoromethyl)-4,7-dihydropyrazolo[1,5-a]pyrimidine-6-carboxamide]: 20 to 250 µM; for `COc1cccc2oc(-c3c(C4CCC(C(=O)O)CC4)[nH]c4c(-c5ccccc5)c(C(F)(F)F)nn4c3=O)nc12` (single isomer, unassigned) [Compound C1237, 4-(6-(4-methoxybenzo[d]oxazol-2-yl)-7-oxo-3-phenyl-2-(trifluoromethyl)-4,7-dihydropyrazolo[1,5-a]pyrimidin-5-yl)cyclohexane-1-carboxylic acid]: 20 to 250 µM.

Consider `Cc1ccc(NC(=O)c2c(C)[nH]c3c(-c4ccccc4)c(C(F)(F)F)nn3c2=O)cc1` [Compound A1012, 5-methyl-7-oxo-3-phenyl-N-(p-tolyl)-2-(trifluoromethyl)-4,7-dihydropyrazolo[1,5-a]pyrimidine-6-carboxamide], for which the IC50 was in the range of 20 to 250 µM. For the compound `COCCOc1nn2c(=O)c(-c3nc4c(OC)cccc4o3)c(C)[nH]c2c1-c1ccccc1` [Compound C1083, 6-(4-methoxybenzo[d]oxazol-2-yl)-2-(2-methoxyethoxy)-5-methyl-3-phenylpyrazolo[1,5-a]pyrimidin-7(4H)-one], the IC50 is over 250 µM. The figure for `Cc1[nH]c2c(-c3ccccc3)c(C(F)(F)F)nn2c(=O)c1-c1nnc(C2CCCCC2N)o1` (stereo not drawn) [Compound D1080, 6-(5-(2-aminocyclohexyl)-1,3,4-oxadiazol-2-yl)-5-methyl-3-phenyl-2-(trifluoromethyl)pyrazolo[1,5-a]pyrimidin-7(4H)-one] is over 250 µM; for `COc1cccc(NC(=O)c2c(C)[nH]c3c(-c4ccccc4)c(S(C)(=O)=O)nn3c2=O)c1` [Compound A1126, N-(3-methoxyphenyl)-5-methyl-2-(methylsulfonyl)-7-oxo-3-phenyl-4,7-dihydropyrazolo[1,5-a]pyrimidine-6-carboxamide] it is over 250 µM. The figure for `COc1ccnc(NC(=O)c2c(C)[nH]c3c(-c4ccccc4)c(C)nn3c2=O)c1` [Compound A1105, N-(4-methoxypyridin-2-yl)-2,5-dimethyl-7-oxo-3-phenyl-4,7-dihydropyrazolo[1,5-a]pyrimidine-6-carboxamide] is under 20 µM; for `Cc1[nH]c2c(-c3ccccc3)c(C(F)(F)F)nn2c(=O)c1C1OC(=O)c2ccccc21` (stereo not drawn) [Compound C1168, 5-methyl-6-(3-oxo-1,3-dihydroisobenzofuran-1-yl)-3-phenyl-2-(trifluoromethyl)pyrazolo[1,5-a]pyrimidin-7(4H)-one] it is 20 to 250 µM. For `Cc1[nH]c2c(-c3ccccc3)c(C(F)(F)F)nn2c(=O)c1C(=O)Nc1ccc(C(F)(F)F)cc1` [Compound A1007, 5-methyl-7-oxo-3-phenyl-2-(trifluoromethyl)-N-(4-(trifluoromethyl)phenyl)-4,7-dihydropyrazolo[1,5-a]pyrimidine-6-carboxamide], the IC50 lay in the range of 20 to 250 µM.

For the compound `Cc1nc(-c2c(C)[nH]c3c(-c4ccccc4)c(C(F)(F)F)nn3c2=O)[nH]c1C` [Compound C1021, 6-(4,5-dimethyl-1H-imidazol-2-yl)-5-methyl-3-phenyl-2-(trifluoromethyl)pyrazolo[1,5-a]pyrimidin-7(4H)-one], the IC50 is 20 to 250 µM. The same measure for `Cc1[nH]c2c(-c3ccccc3)c(C(F)(F)F)nn2c(=O)c1-c1nnc(-c2cccnc2)o1` [Compound D1063, 5-methyl-3-phenyl-6-(5-(pyridin-3-yl)-1,3,4-oxadiazol-2-yl)-2-(trifluoromethyl)pyrazolo[1,5-a]pyrimidin-7(4H)-one]: 20 to 250 µM; for `COc1cc(NC(=O)c2c(C)[nH]c3c(-c4ccccc4)c(C(F)(F)F)nn3c2=O)ccn1` [Compound A1087, N-(2-methoxypyridin-4-yl)-5-methyl-7-oxo-3-phenyl-2-(trifluoromethyl)-4,7-dihydropyrazolo[1,5-a]pyrimidine-6-carboxamide]: 20 to 250 µM. For the compound `Cc1[nH]c2c(-c3ccccc3)c(C(F)(F)F)nn2c(=O)c1C(=O)Nc1ccncc1` [Compound A1047, 5-methyl-7-oxo-3-phenyl-N-(pyridin-4-yl)-2-(trifluoromethyl)-4,7-dihydropyrazolo[1,5-a]pyrimidine-6-carboxamide], the IC50 lay in the range of 20 to 250 µM. With `COc1cccc2oc(-c3c(C)[nH]c4c(-c5ccccc5)c(S(C)(=O)=O)nn4c3=O)nc12` [Compound C1068, 6-(4-methoxybenzo[d]oxazol-2-yl)-5-methyl-2-(methylsulfonyl)-3-phenylpyrazolo[1,5-a]pyrimidin-7(4H)-one], the IC50 is 20 to 250 µM.

In the case of `COCCNC(=O)c1[nH]c2c(-c3ccccc3)c(C(F)(F)F)nn2c(=O)c1-c1nc2c(OC)cccc2o1` [Compound C1142, 6-(4-methoxybenzo[d]oxazol-2-yl)-N-(2-methoxyethyl)-7-oxo-3-phenyl-2-(trifluoromethyl)-4,7-dihydropyrazolo[1,5-a]pyrimidine-5-carboxamide], the IC50 was under 20 µM. Take `Cc1cccc(-c2c(C(F)(F)F)nn3c(=O)c(-c4nc5c(o4)CCCC5)c(C)[nH]c23)c1` [Compound C1034, 5-methyl-6-(4,5,6,7-tetrahydrobenzo[d]oxazol-2-yl)-3-(m-tolyl)-2-(trifluoromethyl)pyrazolo[1,5-a]pyrimidin-7(4H)-one]: the IC50 was over 250 µM. For the compound `COc1ccc(NC(=O)c2c(C)[nH]c3c(-c4ccccc4)c(C(F)(F)F)nn3c2=O)cc1` [Compound A1001, N-(4-methoxyphenyl)-5-methyl-7-oxo-3-phenyl-2-(trifluoromethyl)-4,7-dihydropyrazolo[1,5-a]pyrimidine-6-carboxamide], the IC50 fell in the range of 20 to 250 µM. `Cc1[nH]c2c(-c3ccccc3)c(C(F)(F)F)nn2c(=O)c1C(=O)Nc1ccccc1N(C)C` [Compound A1053, N-(2-(dimethylamino)phenyl)-5-methyl-7-oxo-3-phenyl-2-(trifluoromethyl)-4,7-dihydropyrazolo[1,5-a]pyrimidine-6-carboxamide]: the IC50 fell in the range of 20 to 250 µM. For `COc1ccc(-c2c(C(F)(F)F)nn3c(=O)c(-c4nc5c(OC)cccc5o4)c(C)[nH]c23)cc1` [Compound C1115, 6-(4-methoxybenzo[d]oxazol-2-yl)-3-(4-methoxyphenyl)-5-methyl-2-(trifluoromethyl)pyrazolo[1,5-a]pyrimidin-7(4H)-one], the 50% inhibitory concentration (IC50) was in the range of 20 to 250 µM. The same measure for `CC(=O)N1CCC(NC(=O)c2c(C)[nH]c3c(-c4ccccc4)c(C(F)(F)F)nn3c2=O)CC1` [Compound A1027, N-(1-acetylpiperidin-4-yl)-5-methyl-7-oxo-3-phenyl-2-(trifluoromethyl)-4,7-dihydropyrazolo[1,5-a]pyrimidine-6-carboxamide]: 20 to 250 µM. The same measure for `COc1cc(F)cc(NC(=O)c2c(C)[nH]c3c(-c4ccccc4)c(C(F)(F)F)nn3c2=O)c1` [Compound A1133, N-(3-fluoro-5-methoxyphenyl)-5-methyl-7-oxo-3-phenyl-2-(trifluoromethyl)-4,7-dihydropyrazolo[1,5-a]pyrimidine-6-carboxamide]: under 20 µM. The figure for `Cc1[nH]c2c(C3CCCC3)c(C(F)(F)F)nn2c(=O)c1-c1ccccc1` [Compound C1266, 3-cyclopentyl-5-methyl-6-phenyl-2-(trifluoromethyl)pyrazolo[1,5-a]pyrimidin-7(4H)-one] is over 250 µM; for `Cc1[nH]c2c(-c3ccccc3)c(C(F)(F)F)nn2c(=O)c1C(=O)Nc1ccc(C#N)cc1` [Compound A1015, N-(4-cyanophenyl)-5-methyl-7-oxo-3-phenyl-2-(trifluoromethyl)-4,7-dihydropyrazolo[1,5-a]pyrimidine-6-carboxamide] it is 20 to 250 µM; for `Cc1[nH]c2c(-c3ccccc3)c(C(F)(F)F)nn2c(=O)c1C(=O)Nc1cccnc1` [Compound A1005, 5-methyl-7-oxo-3-phenyl-N-(pyridin-3-yl)-2-(trifluoromethyl)-4,7-dihydropyrazolo[1,5-a]pyrimidine-6-carboxamide] it is 20 to 250 µM.
